From patent US9956208B2, “Compounds for the treatment of cancer and inflammatory diseases” (C2 Pharmaceuticals, LLC, priority 2013, dated 2018)
pIC50: −log10 of the molar value.

Each molecule was assayed against human BTK (Homo sapiens (Human), UniProt Q06187) (assay: BTK activity, Invitrogen SelectScreen Biochemical Kinase Profiling Service, Z'-LYTE Screening Protocol). Conditions: Z'-LYTE assay, ATP concentration at Km.
Procedure: BTK activity was determined using Invitrogen's SelectScreen® Biochemical Kinase Profiling Service using the Z′-LYTE Screening Protocol and Assay Conditions (ATP concentration at Km).

human BTK, sequence (Q06187 whole entry): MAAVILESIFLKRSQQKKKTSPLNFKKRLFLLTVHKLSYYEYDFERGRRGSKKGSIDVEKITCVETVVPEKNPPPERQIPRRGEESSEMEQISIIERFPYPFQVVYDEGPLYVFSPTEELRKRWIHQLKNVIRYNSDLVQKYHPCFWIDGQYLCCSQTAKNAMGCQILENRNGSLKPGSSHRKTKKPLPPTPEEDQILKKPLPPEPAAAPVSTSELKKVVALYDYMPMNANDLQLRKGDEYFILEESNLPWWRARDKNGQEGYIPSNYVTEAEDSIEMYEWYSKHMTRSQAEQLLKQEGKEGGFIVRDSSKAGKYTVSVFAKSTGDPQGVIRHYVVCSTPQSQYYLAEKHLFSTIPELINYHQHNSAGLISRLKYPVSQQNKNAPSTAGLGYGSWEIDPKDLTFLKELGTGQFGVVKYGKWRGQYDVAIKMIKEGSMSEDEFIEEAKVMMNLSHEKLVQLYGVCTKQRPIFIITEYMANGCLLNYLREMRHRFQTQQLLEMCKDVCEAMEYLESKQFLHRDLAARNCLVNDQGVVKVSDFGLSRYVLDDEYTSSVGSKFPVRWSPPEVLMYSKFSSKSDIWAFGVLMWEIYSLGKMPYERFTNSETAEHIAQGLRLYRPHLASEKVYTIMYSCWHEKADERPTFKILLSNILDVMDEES

Structure (SMILES)	pIC50
C=CC(=O)Nc1cccc2c1OCc1[nH]c(=O)c3c(N)n(-c4cc(O)ccc4C)nc3c1-2 [Example 1, N-[14-amino-15-(5-hydroxy-2-methylphenyl)-12-oxo-8-oxa-11,15,16-triazatetracyclo[8.7.0.0^2,7.0^13,17]heptadeca-1(10),2(7),3,5,13,16-hexaen-6-yl]prop-2-enamide]	> 8.00
Cc1ccc(O)cc1-n1nc2c3c([nH]c(=O)c2c1N)COc1c(NC(=O)/C=C/CN(C)C)cccc1-3 [Example 2, (2E)-N-[14-amino-15-(5-hydroxy-2-methylphenyl)-12-oxo-8-oxa-11,15,16-triazatetracyclo[8.7.0.0^2,7.0^13,17]heptadeca-1(10),2(7),3,5,13,16-hexaen-6-yl]-4-(dimethylamino)but-2-enamide]	> 8.00
CN(C)C/C=C/C(=O)Nc1cccc2c1OCc1[nH]c(=O)c3c(N)n(-c4ccc(Oc5ccccc5)cc4)nc3c1-2 [Example 3, (2E)-N-[14-amino-12-oxo-15-(4-phenoxyphenyl)-8-oxa-11,15,16-triazatetracyclo[8.7.0.0^2,7.0^13,17]heptadeca-1(10),2(7),3,5,13,16-hexaen-6-yl]-4-(dimethylamino)but-2-enamide]	> 8.00
C=CC(=O)Nc1cccc2c1OCc1[nH]c(=O)c3c(N)n(-c4ccccc4F)nc3c1-2 [Example 4, N-[14-amino-15-(2-fluorophenyl)-12-oxo-8-oxa-11,15,16-triazatetracyclo[8.7.0.0^2,7.0^13,17]heptadeca-1(10),2(7),3,5,13,16-hexaen-6-yl]prop-2-enamide]	7.00 to 8.00
